From ChEMBL document CHEMBL3877311, “Discovery of a novel series of N-hydroxypyridone derivatives protecting astrocytes against hydrogen peroxide-induced toxicity via improved mitochondrial functionality” (Bioorg Med Chem, 2017)
Active and inactive are the calls of the source. The calls are words filed in the database; no cut-off is given here.

How the values were obtained:
Astrocyte [1] = test: Inhibition of H2O2-induced mitochondrial metabolic dysfunction in Sprague-Dawley rat primary astrocytes by resazurin-dye based presto blue assay; format: functional, cell-based
Astrocyte [2] = test: Inhibition of H2O2-induced mitochondrial metabolic dysfunction in Sprague-Dawley rat primary astrocytes at 0.001 to 10 uM by resazurin-dye based presto blue assay relative to control; format: functional
[3] = Cytoprotective activity in Sprague-Dawley rat primary astrocytes assessed as inhibition of H2O2-induced cell death by LDH release assay; format: functional, cell-based; conditions: Astrocyte
[4] = Cytoprotective activity in Sprague-Dawley rat primary astrocytes assessed as inhibition of H2O2-induced cell death at 0.001 to 10 uM by LDH release assay relative to control; format: functional, Astrocyte
Astrocyte [5] = test: Cytoprotective activity in Sprague-Dawley rat primary astrocytes assessed as inhibition of H2O2-induced mitochondrial membrane depolarization at 1 uM measured every 5 mins for 2 hrs by TMRM dye based fluorescence assay; format: functional, cell-based
Rattus norvegicus = species on record: Rattus norvegicus; test: Cytotoxicity against Sprague-Dawley rat primary astrocytes assessed as cell death up to 10 uM by LDH release assay; format: toxicity; conditions: astrocyte
[6] = Induction of mitochondrial membrane depolarization in Sprague-Dawley rat primary astrocytes at 1 uM measured every 5 mins for 2 hrs by TMRM dye based fluorescence assay; format: cell-based; conditions: astrocyte
[7] = Effect on ATP turn over-linked oxygen consumption rate in Sprague-Dawley rat primary astrocytes at 1 uM; format: ADME, cell-based; conditions: astrocyte
[8] = Effect on basal oxygen consumption rate in Sprague-Dawley rat primary astrocytes at 1 uM; format: ADME, cell-based; conditions: astrocyte
[9] = Effect on basal extracellular acidification rate in Sprague-Dawley rat primary astrocytes at 1 uM; format: ADME, cell-based; conditions: astrocyte
Astrocyte [10] = test: Cytoprotective activity in Sprague-Dawley rat primary astrocytes assessed as inhibition of H2O2-induced decrease in oxygen consumption rate at 1 uM; format: functional, cell-based
Astrocyte [11] = test: Inhibition of H2O2-induced mitochondrial metabolic dysfunction in Sprague-Dawley rat primary astrocytes assessed as stimulation of extracellular acidification rate at 1 uM; format: functional, cell-based
Astrocyte [12] = test: Inhibition of H2O2-induced mitochondrial metabolic dysfunction in Sprague-Dawley rat primary astrocytes assessed as stimulation of glycolytic metabolism at 1 uM; format: functional, cell-based

Compound | IC50 (Astrocyte [1]) | Imax (Astrocyte [2]) | IC50 [3] | Imax [4] | inhibition (Astrocyte [5]) | Activity (Rattus norvegicus) | Activity [6] | Activity [7] | Activity [8] | Activity [9] | inhibition (Astrocyte [10]) | inhibition (Astrocyte [11]) | inhibition (Astrocyte [12])
Cc1cc(C2CCCCC2)n(O)c(=O)c1 [CICLOPIROX] | 330 nM | 43.72% | 250 nM | 50.3% | Active | – | – | – | – | – | – | – | –
Cc1cc(-c2cccc(F)c2)n(O)c(=O)c1 | – | 0.75% | – | – | – | – | – | – | – | – | – | – | –
COc1ccccc1-c1ccc(-c2cc(C)cc(=O)n2O)cc1 | 340 nM | 58.6% | 156 nM | 58.8% | Active | Non-Toxic | Non-Toxic | Non-Toxic | Non-Toxic | Non-Toxic | Active | Active | Active
